Laboratory results as given in US20260060982A1, “USE OF BTK INHIBITOR AND SINGLE-DOSE DRUG” (HUBEI BIO-PHARMACEUTICAL INDUSTRIAL TECHNOLOGICAL INSTITUTE …, priority 2023, published 2026).

Biological target: BTK (Homo sapiens, UniProt Q06187)
Assay: BTK target occupancy in peripheral blood mononuclear cells (ELISA), Phase I single-dose trial
Type: in vivo
Parameters: endogenous in cells; host or cells: human peripheral blood mononuclear cells (PBMCs) of trial subjects, lysate
Experimental: The receptor occupancy of compound (I) in human peripheral blood mononuclear cell lysate was detected by ELISA. The analysis method was to perform relative quantitative determination of BTK in human peripheral blood mononuclear cells (PBMCs) using ELISA.
PBMC lysate containing BTK was incubated with compound (I), with a control containing no compound (I), then incubated with biotinlated compound (I), and then added to a well plate pre-coated with streptavidin. When compound (I) was incubated with PBMC lysate, it was bound to BTK, thereby preventing BTK from binding to biotinylated compound (I). Since the complex cannot bind to the well plate, it was difficult to generate a response signal.
Rabbit anti-BTK primary antibody incubated with the above samples would bind to BTK. Tetramethylbenzidine (TMB) was the substrate of HRP coupled to the anti-rabbit secondary antibody. […] After color development, the absorbance was measured at a wavelength of 450 nm. […] The content of free BTK was proportional to the absorbance. In this way, the content of BTK can be indirectly detected. […]
The analysis was performed using the Per-protocol set. The differences in BTK target occupancy rate among the different dose groups was analyzed using the Chi-Square test; and the relationship between dose, plasma concentration, and BTK target occupancy rate was analyzed using Logistic Regression.

Chain of BTK (Q06187 whole entry): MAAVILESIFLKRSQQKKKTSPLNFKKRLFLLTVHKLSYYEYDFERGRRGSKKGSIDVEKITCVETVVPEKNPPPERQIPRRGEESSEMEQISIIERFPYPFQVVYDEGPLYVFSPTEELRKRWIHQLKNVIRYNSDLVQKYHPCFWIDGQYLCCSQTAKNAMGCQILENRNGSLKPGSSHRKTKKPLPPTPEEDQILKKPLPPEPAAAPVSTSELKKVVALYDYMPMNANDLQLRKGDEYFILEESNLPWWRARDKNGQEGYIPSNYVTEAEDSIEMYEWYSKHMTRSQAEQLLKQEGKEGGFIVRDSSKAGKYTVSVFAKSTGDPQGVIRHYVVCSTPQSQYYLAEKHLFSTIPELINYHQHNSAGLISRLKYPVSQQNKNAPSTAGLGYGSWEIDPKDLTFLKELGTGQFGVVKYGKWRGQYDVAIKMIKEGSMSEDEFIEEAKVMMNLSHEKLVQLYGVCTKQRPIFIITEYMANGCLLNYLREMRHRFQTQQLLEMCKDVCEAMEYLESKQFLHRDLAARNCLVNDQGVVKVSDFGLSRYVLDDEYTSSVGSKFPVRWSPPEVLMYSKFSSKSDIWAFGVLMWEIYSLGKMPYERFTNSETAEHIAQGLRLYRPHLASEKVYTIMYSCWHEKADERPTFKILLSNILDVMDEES

C=CC(=O)N1CCC[C@@H](n2nc(-c3ccc(Oc4ccccn4)cc3)c3c(N)n[nH]c(=O)c32)C1 [compound (I), (R)-1-(1-acryloylpiperidin-3-yl)-4-amino-3-(4-(pyridin-2-yloxy)phenyl)-1H-pyrazolo[3,4-d]pyridazin-7(6H)-one]
maximum BTK target occupancy rate (single administration of 10 mg): 58.93%
maximum BTK target occupancy rate (single administration of 25 mg or above): ~100%
